US7351744B2, “Naphthalene derivatives as termite repellents and toxicants” (Board of Supervisors of Louisiana State University and …, priority 2003, dated 2008)

Tested on: C. formosanus workers
Assay: Treated sand when untreated sand is an alternative
Type: in vivo, Coptotermes formosanus
Conditions: for Survival (mean % ± SE) day 12: Colony WB; for Survival (mean % ± SE) day 12 / Survival (% ± SE) day 12: treated and untreated sand; for Survival (% ± SE) day 12: Colony E
Procedure: To further test the repellency of 2′-acetonaphthone, the three-chambered transparent plastic containers described in Example 5 were used. Sand was treated, allowed to dry from the solvent, and wetted with DDH2O as described in Example 5. Treated sand was placed in one of the side chambers, and the other side chamber received an equal amount of untreated sand. The concentrations of 2′-acetonaphthone used were 4.16, 8.33, 16.67, 33.33 and 66.67 mg/kg sand. Each concentration and the control had five replicate containers. Weighed balsa wood slices (0.159 cm×3.5 cm×6.0 cm each) were placed on the surface of both treated and untreated sand, and were wetted with 1 ml of DDH2O. Termites (200 workers and 20 soldiers) from colony WB were released in the middle chamber. On days 2, 3, 4 and 7, the bottom of each container was scanned, and tunnel areas measured as above. On day 12, the number of living termites in each container was recorded. The wood slices were then cleaned, dried and re-weighed to calculate food consumption.
The above experiment was repeated with new concentrations of 2′-acetonaphthone: 8.75, 17.5, 35, 70 and 140 mg/kg sand. Termites from colony E were tested, and the food source was changed to filter paper. Tunnels were scanned and measured on days 2, 5, 8 and 12. The data were analyzed as described in Example 5, and paired t-tests were used to compare tunneling and feeding activities between treated and untreated sides.

CC(=O)c1ccc2ccccc2c1 [2′-acetonaphthone]
Survival (mean % ± SE) day 12 (4.16 mg/kg): 48.75 ± 2.78 ab % | Survival (mean % ± SE) day 12 (8.33 mg/kg): 36.00 ± 4.76 bc % | Survival (% ± SE) day 12 (8.75 mg/kg): 61.60 ± 2.79 abc % | Survival (mean % ± SE) day 12 (16.67 mg/kg): 35.25 ± 3.47 bc % | Survival (% ± SE) day 12 (17.5 mg/kg): 67.20 ± 1.36 ab % | Survival (mean % ± SE) day 12 (33.33 mg/kg): 17.33 ± 7.22 c % | Survival (% ± SE) day 12 (35.0 mg/kg): 59.0 ± 7.72 bc % | Survival (mean % ± SE) day 12 (66.67 mg/kg): 24.25 ± 11.99 c % | Survival (% ± SE) day 12 (70.0 mg/kg): 53.0 ± 2.34 c % | Survival (% ± SE) day 12 (140.0 mg/kg): 51.60 ± 3.97 c % | concentration with significantly reduced survival after 12 days (colony E): ≥ 35.0 mg/kg sand | concentration significantly reducing overall tunneling (treated plus untreated sand) (colony E, 12 days): ≥ 35.0 mg/kg | concentration with significant reduction in consumption of filter paper on treated sand (colony E, 12 days): ≥ 8.75 mg/kg | concentration with significantly less total food consumption (colony E, only this treatment): 140 mg/kg | concentration with significant reduction in tunneling activity in treated sand (colony E, up to 12 days): ≥ 17.5 mg/kg | concentration with significantly reduced survival on day 12 (colony WB): ≥ 8.33 mg/kg | concentration with significantly reduced consumption of wood slices on treated sand (colony WB, 12 days): ≥ 8.33 mg/kg | concentration with significant difference in tunneling activity between untreated and treated sand (colony WB, days 2, 3, 4, 7): ≥ 16.67 mg/kg sand
